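48-hour exposure; five concentrations; linearly interpolated endpoints. Definition used: TGI = concentration required for complete inhibition of growth.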 Where a SMILES comes first, the peptide text is derived from it. Bridges are numbered along the chain shown (N, C = ends). The star is where a group is joined. Cbz = O=C(OCc1ccccc1)*
How the values were obtained:
Assay in all cases: NCI tumour cell line growth inhibition, 48 h
COLO 205 colon = test system: COLO 205 colon
M19-MEL melanoma = test system: M19-MEL melanoma
DMS 114 small cell lung = test system: DMS 114 small cell lung
DMS 273 small cell lung = test system: DMS 273 small cell lung
XF 498 CNS = test system: XF 498 CNS
MOLT-4 leukemia = test system: MOLT-4 leukemia
HT29 colon = test system: HT29 colon
LXFL 529 NSCLC = test system: LXFL 529 NSCLC
SNB-75 CNS = test system: SNB-75 CNS
KM20L2 colon = test system: KM20L2 colon
NCI-H460 lung = test system: NCI-H460 lung
SNB-78 CNS = test system: SNB-78 CNS
HL-60(TB) leukemia = test system: HL-60(TB) leukemia
RXF 393 renal = test system: RXF 393 renal
DLD-1 colon = test system: DLD-1 colon
UACC-257 melanoma = test system: UACC-257 melanoma
HOP-18 NSCLC = test system: HOP-18 NSCLC
RXF-631 renal = test system: RXF-631 renal

| Structure (SMILES) | TGI (COLO 205 colon) [µM] | TGI (M19-MEL melanoma) [µM] | TGI (DMS 114 small cell lung) [µM] | TGI (DMS 273 small cell lung) [µM] | TGI (XF 498 CNS) [µM] | TGI (MOLT-4 leukemia) [µM] | TGI (HT29 colon) [µM] | TGI (LXFL 529 NSCLC) [µM] | TGI (SNB-75 CNS) [µM] | TGI (KM20L2 colon) [µM] | TGI (NCI-H460 lung) [µM] | TGI (SNB-78 CNS) [µM] | TGI (HL-60(TB) leukemia) [µM] | TGI (RXF 393 renal) [µM] | TGI (DLD-1 colon) [µM] | TGI (UACC-257 melanoma) [µM] | TGI (HOP-18 NSCLC) [µM] | TGI (RXF-631 renal) [µM] |
| --- | --- | --- | --- | --- | --- | --- | --- | --- | --- | --- | --- | --- | --- | --- | --- | --- | --- | --- |
| CCN(CC)C(=O)CCn1ccc(=O)[nH]c1=O | > 100 | > 100 | > 100 | > 100 | > 100 | > 100 | > 100 | > 100 | > 100 | > 100 | > 100 | > 100 | > 100 | > 100 |  |  |  |  |
| CC(=O)OCC1OC(N2C(=O)[C@@H](Oc3ccccc3)[C@H]2/C=C/c2ccccc2)C(OC(C)=O)C(OC(C)=O)C1OC(C)=O (stereo partly specified) | > 100 | > 100 | > 100 | > 100 | > 100 | > 100 | > 100 | > 100 | 90 | > 100 | > 100 | > 100 | > 100 | > 100 | > 100 | > 100 |  |  |
| O=C(Cc1ccccc1)NN1C(=O)C(Cl)C1c1ccc(Cl)cc1 (stereo unspecified) | > 100 |  | > 100 | > 100 | > 100 | > 100 | > 100 | > 100 | > 100 | > 100 | > 100 | > 100 | > 100 | > 100 | > 100 | > 100 | > 100 |  |
| C=C=C[P+](c1ccccc1)(c1ccccc1)c1ccccc1 | 10.3 | 91.9 | 29.9 | 54.8 |  | 16.2 |  | 20.8 | 44.9 |  | 45.7 | 86 | 23.4 |  | > 100 | 39.5 | > 100 |  |
| Brc1ccc(C2=NCSC(c3ccc(Br)cc3)=N2)cc1 | > 100 |  |  |  |  | 48.6 | 86.3 |  | 63.1 |  | 53.8 |  | 34.8 | 44.3 |  | 71 |  |  |
| Cc1nc2ccc(F)cc2c2c1CCS2 | > 100 |  |  |  |  | > 100 | > 100 |  | > 100 |  | > 100 |  | 47.6 | 73.9 |  | > 100 |  |  |
| Cc1cccc(Nc2nc3ccccc3nc2NS(=O)(=O)c2ccc(N)cc2)c1 | > 100 |  |  |  |  | 59.5 | > 100 |  | > 100 |  | > 100 |  | > 100 | 70.5 |  | > 100 |  |  |
| O=C1c2ccccc2C(=O)N1/N=C1/SC(=Nc2ccccc2)C(=Nc2ccccc2)N1c1ccccc1 | > 100 |  |  |  |  | > 100 | > 100 |  | > 54.1 |  | > 100 |  | > 100 | 14.3 |  | > 100 |  |  |
| CNC(=O)C1CCCCNC(=O)CCC(NC(=O)OCc2ccccc2)C(=O)N1 (stereo not drawn) (Cbz-Glu-Lys-NHMe; lactam 1-2; configuration not given here) | > 100 |  |  |  |  | > 100 | > 100 |  | > 100 |  | > 100 |  | > 100 | > 100 |  | > 100 |  |  |
| C=CC(=O)NCCC(=O)OCn1cc(F)c(=O)[nH]c1=O | > 100 |  |  |  |  | > 100 | > 100 |  | > 100 |  | 2.34 |  | > 100 | 94.6 |  | > 100 |  |  |
| CC1(OCc2ccccc2)C(=O)N2C1NCC2(C)C (stereo unspecified) | > 100 | > 100 | > 100 | > 100 | > 100 | > 100 | > 100 | > 100 | > 100 | > 100 | > 100 |  | > 100 | > 100 | > 100 | > 100 |  | > 100 |
| O=C(O)CN1CCSc2ccccc2CN(CC(=O)O)CCSc2ccccc2C1 | > 100 | > 100 |  | > 100 |  |  | > 100 | > 100 | > 100 | > 100 | > 100 | > 100 | > 100 |  | > 100 | > 100 | > 100 |  |
| CC(C)(C)C(=O)/C=C(\OB(F)F)C(C)(C)C | > 100 |  |  |  |  | > 100 | > 100 |  | > 100 |  | > 100 |  | > 100 | > 100 |  | > 100 |  |  |
| CCCCNC(=O)OCCN=c1c2ccccc2ccc2ccccc12 | > 100 |  |  |  |  | > 100 | > 100 |  | > 100 |  | > 100 |  | > 100 | > 100 |  | > 100 |  |  |
| N/N=c1/nc2n(c3ncccc13)C=CNN2 | > 100 |  | > 100 | > 100 | > 100 | > 100 | > 100 | > 100 |  | > 100 | > 100 |  | > 100 | > 100 | > 100 | > 100 |  | > 100 |
| CC[C@@H]1/C=C/C=C/C[C@H](C)[C@@H](O)[C@@H](C)C(=O)[C@H](C)[C@@H](O)[C@H](C)C(=O)[C@H](C)[C@@H](O)[C@H](C)/C=C/C(=O)O[C@H]2[C@@H](C)[C@@H](CC1)O[C@@]1(CC[C@@H](C)[C@@H](CC(C)O)O1)[C@@H]2C (stereo partly specified) | 4.62 |  |  |  |  | 7.65 | 13.9 |  | > 7.9 |  | > 22.2 |  | 7.27 | 9.44 |  | 1.82 |  |  |
| NS(=O)(=O)c1ccc(NC(=S)NC(=O)Nc2ccc(Cl)c(Cl)c2)cc1 | 32.3 |  |  |  |  | 49.6 | 31.3 |  | 28.8 |  | > 69.8 |  | 33.5 | 35.4 |  | 41.4 |  |  |
| CCCN(CCC)C(=S)Sc1nc(C)nc(N2CCN(c3nc(C)nc(SC(=S)N(CCC)CCC)c3[N+](=O)[O-])CC2)c1[N+](=O)[O-] | 19 |  |  |  |  | 28 | 21.7 |  | > 100 |  | > 100 |  | > 38.3 | > 29.5 |  | 54.2 |  |  |
| O=C1C=CC2(C=C1)O[C@H](COCc1ccccc1)[C@@H](COCc1ccccc1)O2 | 3.35 |  |  |  |  | 15.1 | 5.88 |  | 13.4 |  | 37.2 |  | 6.4 | 1.31 |  | 3.56 |  |  |
| CC1=C(O)C(=O)C=C2C1=CC=C1[C@@]2(C)CC[C@@]2(C)C3C[C@@H](C)C(=O)[C@@H](O)[C@]3(C)CC[C@]12C (stereo partly specified) | 3.05 |  |  |  |  | 3.21 | 3.79 |  | 17.3 |  | 37.6 |  | 2.76 | 3.49 |  | 7.46 |  |  |
| COC(=O)NC(=O)NC(Cc1ccccc1)NC(=O)OCc1ccccc1 (stereo unspecified) | > 100 |  |  |  |  | > 100 | > 100 |  | 50.5 |  | > 100 |  | > 100 | 45.4 |  | > 100 |  |  |
| COC(=O)C(Cc1ccccc1)NC(=O)CSc1nnc(COc2ccc(Cl)cc2)n1-c1ccccc1 (stereo unspecified) | 41.8 |  |  |  |  | > 100 | 53.2 |  | 56.1 |  | 35.7 |  | 46.6 | 43 |  | 26.2 |  |  |
| Cc1ccc(S(=O)(=O)NNC(=O)Nc2cccc(C(F)(F)F)c2)cc1 | > 100 |  |  |  |  | > 100 | > 100 |  | 53.7 |  | > 100 |  | > 100 | > 100 |  | > 100 |  |  |
| COC1=C(C(c2cc(OC)c(OC)c(OC)c2)c2cc3c(cc2OC)OCO3)C(=O)OC1 (stereo unspecified) | 53.2 |  |  |  |  | > 100 | 51.4 |  | > 64.3 |  | > 84.7 |  | 49.9 | 43.6 |  | > 100 |  |  |
| O=C1C(Cl)C(c2cccc([N+](=O)[O-])c2)N1n1cnc2ccccc2c1=O (stereo unspecified) | > 100 | > 100 | > 100 | > 100 |  | > 100 | > 100 | > 100 | > 100 | > 100 | > 100 |  | > 100 | > 100 | > 100 | > 100 | > 100 |  |
| Cc1cn2cc(-c3cccs3)nc2s1 | > 100 |  |  |  |  | > 100 | > 90.1 |  | > 100 |  | > 100 |  | > 100 | > 100 |  | > 100 |  |  |
